Experimental data: article PMC9603373 (Microbiology Spectrum, 2022)
Marks after values point to notes of the source that are not given here.

Assays:
[1] = test system: daptomycin nonsusceptible Enterococcus faecium (NTUH688); assay: Rat infective endocarditis model, DNSE; assay type: in vivo; conditions: for blood_cfu / log_blood_cfu / log_veg_cfu / veg_cfu / veg_sterile: DNSE MIC 8, delay 48 h; for Bacterial load in blood / Rate of sterile vegetation / Bacterial load of vegetation: Wistar rat IE, DNSE MIC 8 mg/L, 48 h from inoculation to treatment; for Bacterial load in blood / Bacterial load of vegetation: mean (SD), SD; for Bacterial load in blood / Rate of sterile vegetation: n = 3; for Bacterial load of vegetation: sacrifice 24 h after last dose, n = 3, detection limit 2 log10 CFU/g; for veg_sterile: flag 1/0;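 for all read-outs here: Catheter-induced aortic valve endocarditis in male Wistar rats, treated 3 days, bacteria counted by plating vegetation and blood homogenates on brain heart infusion agar, control rats given phosphate-buffered saline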
Description: Approval for animal use was obtained from the National Taiwan University Institutional Animal Care and Use Committee before the commencement of the experiments. Endocarditis was induced in male Wistar rats weighing ~330 g by using previously developed methodologies with slight modifications ([46]). To expose the right carotid artery for the placement of an intravascular catheter, the animals were anesthetized with 1 μL/g of Zoletil 50 (1 mg/mL) plus Rompun (23.32 mg/mL). A sterile polyethylene catheter (Intramedic PE-10; Clay Adams, Parsippany, NJ, USA) was inserted through a small incision and advanced 4 cm into the left ventricle. The catheter was ligated and left in place for the duration of the experiment. 24 h after the catheter was placed across the aortic valve, the bacterial inoculum, which was presuspended in saline, and 1 mL of 10^8 CFU/mL of VRE were administered intravenously via the tail vein. We evaluated the actual inoculum based on the CFU count. The rats received antibiotic treatment at 24 h or 48 h after the bacterial inoculation.
The animals were treated for 3 days. A group of infected but phosphate-buffered saline-treated rats was used as a control. 24 h after the last treatment, the animals were sacrificed via anesthetic overdose. The aortic valve vegetation and 1 mL of blood were obtained aseptically from the sacrificed animals, weighed, and homogenized in 1 mL of phosphate-buffered saline. Serial dilutions of homogenized tissues were performed, and 100 μL of each dilution, including the undiluted sample, were plated on brain heart infusion agar to enumerate the bacteria. The animals were included in the final analysis only if they survived the entire therapy and if their catheters were found across the aortic valve in the left ventricle. The detection limit of the bacterial load of vegetation was 2 log10 CFU/g.

in vivo = conditions: male, Wistar, rat, plasma, SD
Description: (§1) The experiments were performed in triplicate. […] Plasma was collected via centrifugation, and the samples were stored at −80°C until analysis.
(§2) All of the UHPLC-ESI-MS/MS analyses were performed using an Agilent 1290 UHPLC system coupled with an Agilent 6460 triple quadrupole mass spectrometer (Agilent Technologies, Santa Clara, CA, USA).

[2] = Single-dose pharmacokinetics in healthy rats; conditions: for auc / cmax: rounded mean of the PK study, repeated per rat; for AUC0–24: healthy male Wistar rats, UHPLC-ESI-MS/MS, mean (SD), n = 3, SD; for AUC0–24 / conc: plasma
Description: as §1, §2

[3] = 45 mg/kg sc, rat 1 of 3 (row order)
[4] = 45 mg/kg sc, rat 2 of 3 (row order)
[5] = 45 mg/kg sc, rat 3 of 3 (row order)
[6] = 90 mg/kg sc, rat 1 of 3 (row order)
[7] = 90 mg/kg sc, rat 2 of 3 (row order)
[8] = 90 mg/kg sc, rat 3 of 3 (row order)

CCCCCCCCCC(=O)N[C@@H](Cc1c[nH]c2ccccc12)C(=O)N[C@H](CC(N)=O)C(=O)N[C@@H](CC(=O)O)C(=O)N[C@@H]1C(=O)NCC(=O)N[C@@H](CCCN)C(=O)N[C@@H](CC(=O)O)C(=O)N[C@H](C)C(=O)N[C@@H](CC(=O)O)C(=O)NCC(=O)N[C@H](CO)C(=O)N[C@@H]([C@H](C)CC(=O)O)C(=O)N[C@@H](CC(=O)c2ccccc2N)C(=O)O[C@@H]1C [daptomycin, Daptomycin]
blood_cfu [1, 3]: 180
log_blood_cfu [1, 3]: 2.26
log_veg_cfu [1, 3]: 7
veg_cfu [1, 3]: 5410000
blood_cfu [1, 4]: 0
log_blood_cfu [1, 4]: 0
log_veg_cfu [1, 4]: 7
veg_cfu [1, 4]: 7620000
blood_cfu [1, 5]: 0
log_blood_cfu [1, 5]: 0
log_veg_cfu [1, 5]: 7
veg_cfu [1, 5]: 13600000
blood_cfu [1, 6]: 0
log_blood_cfu [1, 6]: 0
log_veg_cfu [1, 6]: 5
veg_cfu [1, 6]: 80400
blood_cfu [1, 7]: 0
log_blood_cfu [1, 7]: 0
log_veg_cfu [1, 7]: 5
veg_cfu [1, 7]: 110000
blood_cfu [1, 8]: 0
log_blood_cfu [1, 8]: 0
log_veg_cfu [1, 8]: 5.59
veg_cfu [1, 8]: 390000
Bacterial load in blood ([1]; 45 mg/kg/day s.c. 3 days): 0.75 (1.30) log10 CFU/mL
Rate of sterile vegetation ([1]; 45 mg/kg/day s.c. 3 days): 0
Bacterial load of vegetation ([1]; 45 mg/kg/day s.c. 3 days, 45 mg/kg/day): 6.92 (0.20)^f log10 CFU/g
Bacterial load in blood ([1]; 90 mg/kg/day s.c. 3 days): 0 (0) log10 CFU/mL
Rate of sterile vegetation ([1]; 90 mg/kg/day s.c. 3 days): 0
Bacterial load of vegetation ([1]; 90 mg/kg/day s.c. 3 days, 90 mg/kg/day): 5.18 (0.36)^g^,^h log10 CFU/g
veg_sterile [1, 3]: 0
veg_sterile [1, 4]: 0
veg_sterile [1, 5]: 0
veg_sterile [1, 6]: 0
veg_sterile [1, 7]: 0
veg_sterile [1, 8]: 0
Tmax (in vivo; iv, 12 mg/kg): 0.3 h
cmax (in vivo; iv, 12 mg/kg): 106000 ng/mL
half-life (in vivo; iv, 12 mg/kg): 4.6 h
Tmax (in vivo; sc, 45 mg/kg): 3.3 h
cmax (in vivo; sc, 45 mg/kg): 123000 ng/mL
half-life (in vivo; sc, 45 mg/kg): 3 h
Tmax (in vivo; sc, 90 mg/kg): 3.3 h
cmax (in vivo; sc, 90 mg/kg): 178000 ng/mL
half-life (in vivo; sc, 90 mg/kg): 2.9 h
auc ([2]; 12 mg/kg iv): 228
cmax ([2]; 12 mg/kg iv): 106
auc ([2]; 45 mg/kg sc): 987
cmax ([2]; 45 mg/kg sc): 123
auc ([2]; 90 mg/kg sc): 2054
cmax ([2]; 90 mg/kg sc): 179
AUC0–24 ([2]; single dose 12 mg/kg i.v.): 228.2 (15.7) mg × h/L
AUC0–24 ([2]; single dose 45 mg/kg s.c.): 986.7 (185.6) mg × h/L
AUC0–24 ([2]; single dose 90 mg/kg s.c.): 2,053.6 (352.3) mg × h/L
conc ([2]; single dose 12 mg/kg i.v., time 0 h, rat id 1): 71
conc ([2]; single dose 12 mg/kg i.v., time 0 h, rat id 2): 76
conc ([2]; single dose 12 mg/kg i.v., time 0 h, rat id 3): 171
conc ([2]; single dose 12 mg/kg i.v., time 0.5 h, rat id 1): 45
conc ([2]; single dose 12 mg/kg i.v., time 0.5 h, rat id 2): 4
conc ([2]; single dose 12 mg/kg i.v., time 0.5 h, rat id 3): 19
conc ([2]; single dose 12 mg/kg i.v., time 1 h, rat id 1): 70
conc ([2]; single dose 12 mg/kg i.v., time 1 h, rat id 2): 77
conc ([2]; single dose 12 mg/kg i.v., time 1 h, rat id 3): 81
conc ([2]; single dose 12 mg/kg i.v., time 2 h, rat id 1): 47
conc ([2]; single dose 12 mg/kg i.v., time 2 h, rat id 2): 41
conc ([2]; single dose 12 mg/kg i.v., time 2 h, rat id 3): 50
conc ([2]; single dose 12 mg/kg i.v., time 3 h, rat id 1): 31
conc ([2]; single dose 12 mg/kg i.v., time 3 h, rat id 2): 25
conc ([2]; single dose 12 mg/kg i.v., time 3 h, rat id 3): 27
conc ([2]; single dose 12 mg/kg i.v., time 4 h, rat id 1): 21
conc ([2]; single dose 12 mg/kg i.v., time 4 h, rat id 2): 21
conc ([2]; single dose 12 mg/kg i.v., time 4 h, rat id 3): 21
conc ([2]; single dose 12 mg/kg i.v., time 5 h, rat id 1): 10
conc ([2]; single dose 12 mg/kg i.v., time 5 h, rat id 2): 22
